Experimental findings from patent publication US8614216B2 are described below.

A short description of data set [1]: Solid state chemical stability, HPLC analysis. It counts as physicochemical. Particulars: open flask. The source says: (§1) Samples were pulled at pre-determined time-points and analyzed for chemical stability.
Data set [2] is described as follows: Moisture induced weight change in lactate salts. It is filed as physicochemical. Particulars: 55% RH; listed as Lactate-trial 3.
Data set [3] in a line: Dynamic vapor sorption (DVS) hygroscopicity experiment. It is filed as physicochemical. The procedure: All DVS measurements were carried out at 2.5% relative humidity change per hour.
Data set [4] can be described thus: Solution state chemical stability, HPLC analysis. It is filed as physicochemical. Conditions: sealed vial.
Excerpt: as §1

A short description of a further data set: physchem. Conditions: 23 °C, water, thermodynamic from solid.
The nature of data set [5]: Compaction studies (Carver Press, tablet hardness tester). It counts as physicochemical. Particulars: 200 mg at 5000 psi, 0.8 cm die. The procedure:
The resulting tensile strength and thickness of the compacts were measured using a VK 200 Tablet Hardness Tester and Mitutoyo thickness gauge.

A short description of data set [6]: Physical stability of the amorphous form on storage.

Take `CN1CCN(c2ccc3nc(-c4c(N)c5c(F)cccc5[nH]c4=O)[nH]c3c2)CC1` [Bis-lactate]: in data set [1] (40° C./70% Relative humidity), the “Area % at Time = 0” value worked out at 98.99 Area % and the “Area % at Time = 6 weeks” value was determined as 97.92 Area %.

Turning to `CC(O)C(=O)O.CN1CCN(c2ccc3nc(-c4c(N)c5c(F)cccc5[nH]c4=O)[nH]c3c2)CC1` [Form A], the “Moisture induced % weight change” value in data set [2] came out at 0.08%. For the same compound, the “Hygroscopicity in DVS experiment” value in data set [3] (below about 80% r.h., 2.5% relative humidity change per hour) was “not hygroscopic”. For the same compound, the “Water uptake in DVS experiment” value in data set [3] (exposure to r.h. conditions above 90%) is on record as “significant water uptake”. The “Area % at Time = 0” value is 98.41 Area % in data set [1] (30° C./60% Relative humidity), 98.46 Area % in data set [1] (40° C./70% Relative humidity), 98.80 Area % in data set [4] (5° C.) and 98.80 Area % in data set [4] (ambient temperature). In addition, the “Area % at Time = 6 weeks” value in data set [1] (30° C./60% Relative humidity) is reported as 99.04 Area %; in data set [1] (40° C./70% Relative humidity), 98.55 Area %. Also, the results for the “Area % at Time = 7 days” value in data set [4] (5° C.) and in data set [4] (ambient temperature) were 98.60 Area % and 98.71 Area %, respectively. Besides, the solubility (commonly how much of the substance goes into solution per volume) in “physchem” is more than 400 mg/mL. In addition, the “Forms Compact” value was “Yes” in data set [5] (listed as Lactate-trial 1), “Yes” in data set [5] (listed as Lactate-trial 2), “Yes” in data set [5] (listed as Lactate-trial 3) and “forms strong compacts without a tendency to cap or chip” in data set [5] (listed as lactate salt). In addition, the “Tensile strength of compact” value is listed as 13.8 SC—Strong Cobb in data set [5] (listed as Lactate-trial 1), 17.9 SC—Strong Cobb in data set [5] (listed as Lactate-trial 2) and 16.1 SC—Strong Cobb in data set [5] (listed as Lactate-trial 3). The Thickness of compact is on record as 3.06 mm in data set [5] (listed as Lactate-trial 1), 2.92 mm in data set [5] (listed as Lactate-trial 2) and 2.97 mm in data set [5] (listed as Lactate-trial 3).

As to `CN1CCN(c2ccc3nc(-c4c(N)c5c(F)cccc5[nH]c4=O)[nH]c3c2)CC1` [Free base], the entries for the “Area % at Time = 0” value in data set [1] (30° C./60% Relative humidity) and in data set [1] (40° C./70% Relative humidity) were 97.38 Area % and 97.77 Area %, respectively. In addition, the entries for the “Area % at Time = 6 weeks” value in data set [1] (30° C./60% Relative humidity) and in data set [1] (40° C./70% Relative humidity) were 97.83 Area % and 98.23 Area %, respectively.

For the compound `CC(O)C(=O)O.CN1CCN(c2ccc3nc(-c4c(N)c5c(F)cccc5[nH]c4=O)[nH]c3c2)CC1` [amorphous form], the Time stable result in data set [6] (75% relative humidity and 40° C.) was “more than 2 days”. Besides, in data set [6] (ambient conditions), the “Stability of the solid form” value is “stable”.
